According to patent publication US4877785A, “Non-peptidyl beta-succinamidoacyl aminodiols as anti-hypertensive agents” (G. D. Searle & Co., priority 1987, dated 1989):
Where a SMILES comes first, the peptide text is derived from it. [ ]: non-standard residue; d: D form. The star is where a group is joined. Sta = CC(C)C[C@H](N)[C@@H](O)CC(=O)O; Isovaleryl = CC(C)CC(=O)*

Key:
[1] = biological target: T1, Human renin (Homo sapiens, UniProt P00797); test: human renin inhibition test in vitro (angiotensin I determined by radioimmunoassay); type: biochemical; conditions: pH 7.4, 37° C., two hours, human plasma
T1 construct: purchased National Institute for Biological Standards, London
T1 sequence (P00797 67-406): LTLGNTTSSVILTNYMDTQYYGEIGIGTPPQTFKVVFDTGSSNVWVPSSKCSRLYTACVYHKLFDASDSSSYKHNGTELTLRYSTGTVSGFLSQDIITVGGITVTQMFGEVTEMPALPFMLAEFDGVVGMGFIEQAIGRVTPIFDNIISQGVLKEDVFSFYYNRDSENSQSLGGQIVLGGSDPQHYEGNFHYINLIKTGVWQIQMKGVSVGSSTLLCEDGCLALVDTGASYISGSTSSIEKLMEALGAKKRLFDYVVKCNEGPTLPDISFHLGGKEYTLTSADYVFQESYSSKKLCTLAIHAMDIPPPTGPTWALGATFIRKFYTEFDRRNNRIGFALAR
Protocol: Compounds of Formula I were evaluated as inhibitors of human renin in an in vitro assay, as follows: This human renin inhibition test has been previously described in detail [Papaioannou, et al., Clinical and Experimental Hypertension, A7(9), 1243-1257 (1985)]. Human renin was obtained from the National Institute for Biological Standards, London. In a total volume of 0.25 mL 100 mM Tris-acetate buffer at pH 7.4, 25×10^-6 Goldblatt units of renin, 0.05 mL of plasma from human volunteers taking oral contraceptives, 6.0 mM sodium EDTA, 2.4 mM phenylmethyl sulfonyl fluoride, 1.5 mM 8-hydroxyquinoline, 0.4 mg/mL BSA, and 0.024 mg/mL neomycin sulfate were incubated for two hours at 37° C. in the presence or absence of renin inhibitors. The produced angiotensin I was determined by radioimmunoassay (New England Nuclear kit). Compounds of formula I to be assayed were solubilized in either ethyl alcohol or DMSO and diluted with 100 mM Tris-acetate buffer at pH 7.4 to the appropriate concentration. The final concentration of organic solvent in the reaction mixture was less than 1%. Control incubations at 37° C. were used to correct for effects of organic solvent on renin activity.

[2] = system: cathepsin D; conditions: cited from earlier work
[3] = system: renin; conditions: cited from earlier work
[4] = system: pepsin; conditions: cited from earlier work
[5] = system: hog renin; conditions: after injection of hog renin into nephrectomized rats; cited from earlier work

IC50 [1]	Structure (SMILES)	inhibition of cathepsin D [2]	inhibition of renin [3]	inhibition of pepsin [4]	reduction of blood pressure in vivo [5]
330 nM	CC(C)C[C@H](O)[C@H](O)[C@H](CC1CCCCC1)NC(=O)C(C)CNC(=O)C(CC(=O)N1CCOCC1)Cc1cccc2ccccc12 (single isomer, unassigned; isomer a) [Example 11]	–	–	–	–
1000 nM	CC(C)C[C@H](O)[C@H](O)[C@H](CC1CCCCC1)NC(=O)C(C)CNC(=O)C(CC(=O)N1CCOCC1)Cc1cccc2ccccc12 (single isomer, unassigned; isomer b) [Example 13]	–	–	–	–
–	CC(C)CC(=O)N[C@H](C(=O)N[C@H](C(=O)N[C@@H](CC(C)C)[C@@H](O)CC(=O)N[C@@H](C)C(=O)N[C@@H](CC(C)C)[C@@H](O)CC(=O)O)C(C)C)C(C)C [pepstatin] (Isovaleryl-VV[Sta]A[Sta]-OH)	inhibitor	inhibitor	inhibitor	found to reduce blood pressure in vivo
